Data as given in patent US20220227700A1, “HDAC3 CATALYTIC INHIBITOR DEVELOPMENT AND USES THEREOF” (DANA-FARBER CANCER INSTITUTE, INC., priority 2019, published 2022).
Like-named read-outs stand apart in the source and are kept apart here.

Assays:
Format in all cases: biochemical
HDAC3 = molecular target: T1, HDAC3 (Homo sapiens, UniProt O15379); assay: HDAC enzyme assay, HDAC3 (fluorogenic, 384-well); details: for IC50: recombinant full-length HDAC3, 3 hours incubation, substrate MAZ1600 at Km
T1 construct: recombinant, full-length HDAC protein (HDAC1 100 pg/ul, HDAC2 200 pg/ul, HDAC3 100 pg/ul); purchased BPS Biosciences, San Diego, Calif., USA
Method: (§1) The inhibitory effect of compounds on HDAC1-HDAC9 function was determined in vitro using an optimized homogenous assay performed in a 384-well plate format. […] Reactions were performed in assay buffer (50 mM HEPES, 100 mM KCl, 0.001% (v/v) Tween 20, 0.05% (w/v) bovine serum albumin, 200 μM TCEP, pH 7.4) and followed for fluorogenic release of 7-amino-4-methylcoumarin from substrate upon deacetylase and trypsin enzymatic activity. Trypsin was present at a final concentration of 50 nM (Worthington Biochemical Corporation). Fluorescence measurements were obtained approximately every 5 min using a multilabel plate reader and plate stacker (Envision, Perkin-Elmer). Data were analyzed on a plate-by-plate basis for the linear range of fluorescence overtime. The first derivative of data obtained from the plate capture corresponding to the mid-linear range was imported into analytical software (Spotfire DecisionSite and GraphPad Prism). Replicate experimental data from incubations with inhibitor were normalized to DMSO controls. IC50 is determined by logistic regression with unconstrained maximum and minimum values.

HDAC1 = molecular target: T2, HDAC1 (Homo sapiens, UniProt Q13547); assay: HDAC enzyme assay, HDAC1 (fluorogenic, 384-well); details: read-out: IC50 HDAC1 (Tables 4-23, isoform selectivity panel)
T2 construct: recombinant, full-length HDAC protein (HDAC1 100 pg/ul); purchased BPS Biosciences, San Diego, Calif., USA
Method: as §1

HDAC2 = molecular target: T3, HDAC2 (Homo sapiens, UniProt Q92769); assay: HDAC enzyme assay, HDAC2 (fluorogenic, 384-well); details: read-out: IC50 HDAC2 (Tables 4-23, isoform selectivity panel)
T3 construct: recombinant, full-length HDAC protein (HDAC1 100 pg/ul, HDAC2 200 pg/ul); purchased BPS Biosciences, San Diego, Calif., USA
Method: as §1

[1] = FIGS. 4A-4D, read-out: IC50 HDAC3 (Tables 4-23, isoform selectivity panel)
[2] = read-out: IC50 against HDAC3 (Table 3, data of FIG. 2)

T2 sequence (Q13547 whole entry, canonical isoform): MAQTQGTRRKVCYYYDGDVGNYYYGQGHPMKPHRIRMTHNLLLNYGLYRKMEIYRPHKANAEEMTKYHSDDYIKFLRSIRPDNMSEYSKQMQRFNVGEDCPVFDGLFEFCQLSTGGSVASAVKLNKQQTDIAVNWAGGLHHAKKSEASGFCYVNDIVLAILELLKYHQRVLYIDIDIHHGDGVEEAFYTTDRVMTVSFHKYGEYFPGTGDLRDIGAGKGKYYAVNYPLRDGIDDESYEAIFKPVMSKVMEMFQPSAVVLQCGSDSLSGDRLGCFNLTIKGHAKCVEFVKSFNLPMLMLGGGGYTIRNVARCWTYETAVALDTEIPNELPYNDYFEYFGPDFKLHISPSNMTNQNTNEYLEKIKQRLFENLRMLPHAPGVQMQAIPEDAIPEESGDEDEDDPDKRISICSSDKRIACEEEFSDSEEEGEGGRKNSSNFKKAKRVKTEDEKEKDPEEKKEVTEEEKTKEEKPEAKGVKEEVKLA
T1 sequence (O15379 whole entry): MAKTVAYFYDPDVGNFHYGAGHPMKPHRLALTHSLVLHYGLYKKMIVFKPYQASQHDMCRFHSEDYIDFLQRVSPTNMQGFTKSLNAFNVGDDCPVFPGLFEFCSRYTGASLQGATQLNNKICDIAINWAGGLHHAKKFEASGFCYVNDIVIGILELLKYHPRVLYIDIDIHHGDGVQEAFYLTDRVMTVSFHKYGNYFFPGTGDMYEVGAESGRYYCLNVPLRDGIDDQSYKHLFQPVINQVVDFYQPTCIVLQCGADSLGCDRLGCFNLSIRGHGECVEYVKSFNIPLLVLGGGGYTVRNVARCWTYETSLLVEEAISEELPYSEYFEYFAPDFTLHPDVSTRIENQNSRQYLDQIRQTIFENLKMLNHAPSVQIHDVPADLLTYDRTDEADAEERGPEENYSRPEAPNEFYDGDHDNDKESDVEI
T1 sequence (Q9Y618 395-489 partner limits assumed): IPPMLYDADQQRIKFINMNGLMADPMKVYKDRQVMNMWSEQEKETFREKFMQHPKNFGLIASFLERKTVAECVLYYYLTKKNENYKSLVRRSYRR
T3 sequence (Q92769 whole entry, canonical isoform): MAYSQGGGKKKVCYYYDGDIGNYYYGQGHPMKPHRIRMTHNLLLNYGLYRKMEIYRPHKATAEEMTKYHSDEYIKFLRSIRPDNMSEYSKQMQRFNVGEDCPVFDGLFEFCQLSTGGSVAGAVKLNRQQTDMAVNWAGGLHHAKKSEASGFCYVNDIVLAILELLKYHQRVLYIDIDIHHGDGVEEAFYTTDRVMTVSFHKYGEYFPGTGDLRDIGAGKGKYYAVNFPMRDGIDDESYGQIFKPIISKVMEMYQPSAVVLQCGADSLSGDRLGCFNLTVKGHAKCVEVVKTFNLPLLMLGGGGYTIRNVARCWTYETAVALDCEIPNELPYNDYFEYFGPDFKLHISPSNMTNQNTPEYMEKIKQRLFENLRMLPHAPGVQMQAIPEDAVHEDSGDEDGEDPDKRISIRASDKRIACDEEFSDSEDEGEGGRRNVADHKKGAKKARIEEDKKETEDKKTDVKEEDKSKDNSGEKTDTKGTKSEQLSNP

## Nc1cc(F)ccc1NC(=O)c1ccc(C(=O)Nc2cccc3ncccc23)cc1 (racemic) [DL-HDAC1]
HDAC3; [1]
  IC50: 11100 nM
HDAC3; [2]
  IC50: 10500 nM

## Nc1cc(F)ccc1NC(=O)c1ccc(C(=O)Nc2ccc(Cl)c(C(F)(F)F)c2)cc1 (racemic) [DL-HDAC2]
HDAC3; [1]
  IC50: 1330 nM
HDAC3; [2]
  IC50: 1330 nM

## Nc1cc(F)ccc1NC(=O)c1ccc(C(=O)Nc2cccc3[nH]ccc23)cc1 (racemic) [DL-HDAC3]
HDAC3; [1]
  IC50: 230 nM
HDAC3; [2]
  IC50: 230 nM
HDAC1
  IC50: 1050 nM
HDAC2
  IC50: 490 nM

## Nc1cc(F)ccc1NC(=O)c1ccc(C(=O)Nc2cccc3sccc23)cc1 (racemic) [DL-HDAC4]
HDAC3; [1]
  IC50: 260 nM
HDAC3; [2]
  IC50: 270 nM

## Nc1cc(F)ccc1NC(=O)c1ccc(C(=O)Nc2ccc(N3CCOCC3)cc2)cc1 (racemic) [DL-HDAC5]
HDAC3; [1]
  IC50: 280 nM
HDAC3; [2]
  IC50: 260 nM
HDAC1
  IC50: 810 nM
HDAC2
  IC50: 440 nM

## CC(NC(=O)c1ccc(C(=O)Nc2ccc(F)cc2N)cc1)c1ccccc1[N+](=O)[O-] (racemic) [DL-HDAC8]
HDAC3; [1]
  IC50: 420 nM
HDAC3; [2]
  IC50: 410 nM
HDAC1
  IC50: 1650 nM
HDAC2
  IC50: 660 nM

## Nc1cc(F)ccc1NC(=O)c1ccc(C(=O)Nc2cccc3cnccc23)cc1 (racemic) [DL-HDAC9]
HDAC3; [1]
  IC50: 550 nM
HDAC3; [2]
  IC50: 630 nM
HDAC1
  IC50: 1550 nM
HDAC2
  IC50: 930 nM

## Cc1cc(NC(=O)c2ccc(C(=O)Nc3ccc(F)cc3N)cc2)n[nH]1 (racemic) [DL-HDAC10]
HDAC3; [1]
  IC50: 450 nM
HDAC3; [2]
  IC50: 450 nM
HDAC1
  IC50: 2070 nM
HDAC2
  IC50: 850 nM

## COc1cc(-c2ccccc2)ccc1NC(=O)c1ccc(C(=O)Nc2ccc(F)cc2N)cc1 (racemic) [DL-HDAC11]
HDAC3; [1]
  IC50: 8810 nM
HDAC3; [2]
  IC50: 7770 nM
HDAC1
  IC50: 36000 nM
HDAC2
  IC50: 4690 nM

## Nc1cc(F)ccc1NC(=O)c1ccc(C(=O)Nc2ccccc2)cc1 (racemic) [DL-HDAC12]
HDAC3; [1]
  IC50: 270 nM
HDAC3; [2]
  IC50: 270 nM
HDAC1
  IC50: 600 nM
HDAC2
  IC50: 360 nM

## Nc1cc(F)ccc1NC(=O)c1ccc(C(=O)NCc2ccc(Br)cc2)cc1 (racemic) [DL-HDAC13]
HDAC3; [1]
  IC50: 120 nM
HDAC3; [2]
  IC50: 120 nM
HDAC1
  IC50: 200 nM
HDAC2
  IC50: 94 nM

## Nc1cc(F)ccc1NC(=O)c1ccc(C(=O)NCCCBr)cc1 (racemic) [DL-HDAC15]
HDAC3; [1]
  IC50: 730 nM
HDAC3; [2]
  IC50: 710 nM
HDAC1
  IC50: 3920 nM
HDAC2
  IC50: 1800 nM

## Nc1cc(F)ccc1NC(=O)c1ccc(C(=O)NCC(F)(F)F)cc1 (racemic) [DL-HDAC16]
HDAC3; [1]
  IC50: 420 nM
HDAC3; [2]
  IC50: 390 nM
HDAC1
  IC50: 2620 nM
HDAC2
  IC50: 990 nM

## CC(=O)c1ccc(NC(=O)c2ccc(C(=O)Nc3ccc(F)cc3N)cc2)cc1 (racemic) [DL-HDAC17]
HDAC3; [1]
  IC50: 170 nM
HDAC3; [2]
  IC50: 150 nM
HDAC1
  IC50: 1220 nM
HDAC2
  IC50: 220 nM

## Nc1cc(F)ccc1NC(=O)c1ccc(C(=O)NC2CCNCC2)cc1 (racemic) [DL-HDAC18]
HDAC3; [1]
  IC50: 560 nM
HDAC3; [2]
  IC50: 530 nM
HDAC1
  IC50: 3490 nM
HDAC2
  IC50: 880 nM

## Nc1cc(F)ccc1NC(=O)c1ccc(C(=O)NCCCn2ccnc2)cc1 (racemic) [DL-HDAC19]
HDAC3; [1]
  IC50: 290 nM
HDAC3; [2]
  IC50: 270 nM
HDAC1
  IC50: 2790 nM
HDAC2
  IC50: 610 nM

## Nc1cc(F)ccc1NC(=O)c1ccc(C(=O)NCCc2cccnc2)cc1 (racemic) [DL-HDAC20]
HDAC3; [1]
  IC50: 330 nM
HDAC3; [2]
  IC50: 290 nM
HDAC1
  IC50: 1730 nM
HDAC2
  IC50: 590 nM

## Nc1cc(F)ccc1NC(=O)c1ccc(C(=O)NCc2ccccn2)cc1 [LW3]
HDAC3; HDAC inhibition assays, FIGS. 1A, 1B, 2, 3
  Selectivity for HDAC3 over other HDAC isoforms: selectively inhibits HDAC3 over other HDAC isoforms
HDAC3; [2]
  IC50: 390 nM
